Molecular target: T1, sigma-2 receptor (S2R) (Homo sapiens, UniProt Q5BJF2)
T1 construct: gene TMEM97
Experiment: radioligand displacement ([3H]-ditolylguanidine, […], with […] (+)pentazocine to mask S1R)
Format: binding

T1 sequence (Q5BJF2 whole entry): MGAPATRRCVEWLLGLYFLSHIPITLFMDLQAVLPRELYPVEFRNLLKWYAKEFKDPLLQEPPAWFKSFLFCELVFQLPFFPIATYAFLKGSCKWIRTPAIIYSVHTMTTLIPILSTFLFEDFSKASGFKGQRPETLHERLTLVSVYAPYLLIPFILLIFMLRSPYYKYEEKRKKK

- pKi S2R ^a ± SD: 7.00 ± 0.11 pKi
Compound: O=C(CCCCCNc1ccc([N+](=O)[O-])c2nonc12)Oc1ccc(CC2CCN(CC3CSC4(CCCCC4)S3)CC2)cc1 (stereo not shown) [BS148-fluo, 4-((1-((1,4-dithiaspiro[4.5]decane-2-yl)methyl)piperidin-4-yl)methyl)phenyl-6-((7-nitrobenzo[c][1,2,5]oxadiazol-4-yl)amino)hexanoate]

— article PMC10253401, “BS148 Reduces the Aggressiveness of Metastatic Melanoma via Sigma-2 Receptor Targeting” (International Journal of Molecular Sciences, 2023)
